Key:
PARP1-DBC1 complex = molecular target: T1, PARP1-DBC1 complex (Homo sapiens, UniProt Q8N163); assay: PARP1-DBC1 dissociation assay (Flag-DBC1 immunoprecipitates incubated with molecules); type: binding
T1 construct: expressed in transfected cells; host or cells: 293T cells stably expressing Flag-DBC1 (retroviral pMSCVpuro-Flag-DBC1)
Protocol: (§1) Protein extracts from 293T or mouse liver tissues were lysed in ice-cold buffer (150 mM NaCl, 1 mM EDTA, 1 mM EGTA, 1% Triton X-100, 0.5% NP-40, 10 mM Tris HCl, pH 7.4) supplemented with protease inhibitors cocktail cOmplete tablets (Roche) and phosphatase inhibitor cocktail 2 and 3 (Sigma). Protein concentrations were determined by the Bradford protein assay (Bio-rad). Flag-M2 agarose beads or anti-V5 agarose affinity gel (Sigma) were mixed with the lysate supernatant. Immunoprecipitation was allowed to proceed for 2 hours up to overnight at 4° C. with gentle rotation. After 4 washes with lysis buffer, proteins were either directly boiled in SDS-PAGE sample buffer or eluted from the agarose beads using 3×FLAG peptides (Sigma).
(§2) Cell lysates or Co-IP samples were run on homemade 10% or 4-20% gradient pre-cast SDS-PAGE gels (Bio-Rad) under reducing conditions, and then transferred to a polyvinylidene difluoride (PVDF) membrane (Millipore). Membranes were blocked with 5% non-fat dry milk in TBS-Tween (10 mM Tris HCl, pH 7.5, 150 mM NaCl, and 0.1% Tween-20). Antibodies were used at the following concentrations: anti-SIRT1 (Santa Cruz, SC-15404) at 1:500, anti-DBC1 (Bethyl Labotatories, A300-434A) at 1:1000, anti-PARP1 (Cell Signaling, #9542L) at 1:1000, anti-γH2AX (Abcam, ab2893) at 1:1000, anti-H2AX (Abcam, ab11175) at 1:1000, anti-NMNAT1 (Abcam, ab45548) at 1:1000, anti-GAPDH (Millipore, MAB374) at 1:3000, anti-V5 (Invitrogen, R960-25) at 1:3000, anti-beta-tubulin (Upstate, 05-661) at 1:1000, anti-α-actin (Millipore, MAB1501R) at 1:2000, anti-Flag (Sigma, F7425) at 1:3000, anti-PARG (Abcam, ab16060) at 1:1000, p53 (Calbiochem, OP43) at 1:1000, RAD51 (Calbiochem, PC130) at 1:1000, p21 (Neomarker-Labvision-Thermal Fisher, RB-032-P1) at 1:1000, SIRT6 (Cell signaling, D8D12) at 1:1000, Streptavidin-HRP at 1:1000 (Trevigen #4800-30-06), anti-PAR (Trevigen, #4335-MC-100; Abcam, ab14459) at 1:1000 and anti-PARP2 (Santa Cruz, SC-393310) at 1:200 overnight at 4° C. The antibodies ATM, ATR, BRCA1, Chk1, Chk2, DNA-PKs and XRCC1 were all from the Bethyl Laboratories. Phospho-Chk1, phospho-Chk2 and phosphor-p53 antibodies were from a DNA Damage Antibody Sampler Kit (Cell Signaling #9947). Secondary antibodies were horseradish peroxidase-coupled sheep anti-mouse IgG (GE Healthcare, UK), donkey anti-rabbit IgG (GE Healthcare, UK). Amersham™ ECL and Amersham Select ECL western blotting detection systems (GE Healthcare, UK) were used to develop signals. Quantifications of images from western blot films were performed using ImageJ (National Institutes of Health, Bethesda, MD).
Equal aliquots of 293T cell lysates with over-expressing Flag-DBC1 were immunoprecipitated using Flag-M2 agarose beads as described above. After four brief washes with lysis buffer, the beads aliquots were incubated with the freshly dissolved NAD^+ or other chemicals for 1 hr at 4° C. with gentle rotation then centrifuged (5000 rpm, 5 min). After completely removing supernatant, the beads were boiled in SDS loading buffer, analyzed by SDS-PAGE, and probed with antibodies.

PARP1-DBC1 interaction = PARP1-DBC1 interaction in treated 293T cells (co-immunoprecipitation); type: cell-based, human; conditions: for effect on the PARP1-DBC1 interaction in 293T cells: PJ34 or 3-AB (2 mM) for 24 hrs
Protocol: 293T, MCF-7, DBC1 wild type and knockout MEFs (a gift from Dr. Eduardo N. Chini from Mayo Clinic) were cultured in Dulbecco's modified Eagle's medium (DMEM, Mediatech, Inc., Herndon, VA) supplemented with 10% fetal bovine serum (Gemini Bio-products, Woodland, CA) with the presence of penicillin and streptomycin (Corning, Manassas, VA). Retroviruses expressing wild-type or mutant Flag-DBC1 proteins were produced by transfecting 293T cells with plasmids encoding VSV-G, Gag-Pol, and pMSCVpuro-Flag-DBC1 constructs using Lipofectamine® 2000 according to the manufacturer's instructions. Media was changed the day after transfection, and virus-containing media was harvested between 48 and 72 hours post-transfection and filtered through a […] (Corning, Manassas, VA). The filtered media was incubated with the target cells in the presence of 5 μg/mL polybrene (Sigma) and selection started using puromycin (2 μg/mL) 48 hrs post-infection. Lentivirus for knocking down DBC1 or SIRT1 was produced by transfecting 293T with psPAX2 (Addgene plasmid #12260), pMD2.G (Addgene plasmid #12259) and shRNA constructs using Lipofectamine® 2000. The virus harvest, infection and selection were same as described for retrovirus production. The transfections of siRNA were performed using Lipofectamine® RNAiMAX, according to the manufacturer's instructions.
as §1
(§3) Cell lysates or Co-IP samples were run on homemade 10% or 4-20% gradient pre-cast SDS-PAGE gels (Bio-Rad) under reducing conditions, and then transferred to a polyvinylidene difluoride (PVDF) membrane (Millipore). Membranes were blocked with 5% non-fat dry milk in TBS-Tween (10 mM Tris HCl, pH 7.5, 150 mM NaCl, and 0.1% Tween-20). […] Quantifications of images from western blot films were performed using ImageJ (National Institutes of Health, Bethesda, MD).

PAR = PAR induced by paraquat in 293T cells (western blot); type: cell-based, human; conditions: 3-AB 2 mM, paraquat 0.5 mM
Protocol: as §2, with “The antibodies ATM, ATR, BRCA1, Chk1, Chk2, DNA-PKs and XRCC1 were all from the Bethyl Laboratories. Phospho-Chk1, phospho-Chk2 and phosphor-p53 antibodies were from a DNA Damage Antibody Sampler Kit (Cell Signaling #9947). Secondary antibodies were horseradish peroxidase-coupled sheep anti-mouse IgG (GE Healthcare, UK), donkey anti-rabbit IgG (GE Healthcare, UK). Amersham™ ECL and Amersham Select ECL western blotting detection systems (GE Healthcare, UK) were used to develop signals.” left out

SIRT1-DBC1 interaction = SIRT1-DBC1 interaction in treated 293T cells; type: cell-based, human; conditions: FK866 (5 nM, 24 hrs)
Protocol: 293T, MCF-7, DBC1 wild type and knockout MEFs (a gift from Dr. Eduardo N. Chini from Mayo Clinic) were cultured in Dulbecco's modified Eagle's medium (DMEM, Mediatech, Inc., Herndon, VA) supplemented with 10% fetal bovine serum (Gemini Bio-products, Woodland, CA) with the presence of penicillin and streptomycin (Corning, Manassas, VA). Retroviruses expressing wild-type or mutant Flag-DBC1 proteins were produced by transfecting 293T cells with plasmids encoding VSV-G, Gag-Pol, and pMSCVpuro-Flag-DBC1 constructs using Lipofectamine® 2000 according to the manufacturer's instructions. […]
Protein extracts from 293T or mouse liver tissues were lysed in ice-cold buffer (150 mM NaCl, 1 mM EDTA, 1 mM EGTA, 1% Triton X-100, 0.5% NP-40, 10 mM Tris HCl, pH 7.4) supplemented with protease inhibitors cocktail cOmplete tablets (Roche) and phosphatase inhibitor cocktail 2 and 3 (Sigma). Protein concentrations were determined by the Bradford protein assay (Bio-rad). […]
as §3, with “(Millipore).” for “(Millipore). Membranes were blocked with 5% non-fat dry milk in TBS-Tween (10 mM Tris HCl, pH 7.5, 150 mM NaCl, and 0.1% Tween-20).”

cellular NAD^+ levels = assay: NAD+ quantification in 293T cells; type: cell-based, human; conditions: treatment of 293T cells
Protocol: NAD^+ quantification was conducted with an NAD/NADH Quantification Kit (Biovision, Milpitas, CA) following the manufacturer's instructions and normalized to soluble protein content.

[1] = system: p53 and RAD51 pulled down with Flag-DBC1; assay: Interaction of DNA repair proteins with Flag-DBC1 in 293T cells; type: cell-based, human; conditions: 0.5 mM, 24 hrs
Protocol: as §1, §3

DBC1WT = molecular target: T2, DBC1WT (Homo sapiens, UniProt Q8N163); assay: Biotin-NAD+ binding assay, DBC1 wild type; conditions: unlabeled competitor
T2 construct: expressed in transfected cells; host or cells: 293T cells
Protocol: Lysates of 293T cells expressing Flag-DBC1 or V5/his-DBC1 were prepared as described above and bound to an anti-Flag high sensitivity M2 coated 96-well plate (Sigma) or His-Select® high sensitivity nickel coated 96-well plate (Sigma) by incubating for 3-4 hrs at 4° C., then washed three times with lysis buffer. Biotin-NAD^+ (Trevigen), or specified molecules were incubated in the plates overnight at 4° C. After washing twice with PBS (pH 7.4) and twice with PBS-T (0.1% Triton X-100), streptavidin-HRP (Trevigen, 1:500) in PBS-T was added to each well and incubated for 1 hr at room temperature. After washing twice with PBS (pH 7.4) and twice with PBS-T, 100 μl of PeroxyGlow™ A and B chemiluminescent substrates (Trevigen) mixture (1:1) was added into each well for 1 min followed by immediate quantification of chemiluminescence on a EnSpire 2300 Multi-label reader (Perkin Elmer). Binding curves were calculated using the “one site, specific binding” formula of GraphPad.

T1 sequence (Q8N163 whole entry, one chain of several): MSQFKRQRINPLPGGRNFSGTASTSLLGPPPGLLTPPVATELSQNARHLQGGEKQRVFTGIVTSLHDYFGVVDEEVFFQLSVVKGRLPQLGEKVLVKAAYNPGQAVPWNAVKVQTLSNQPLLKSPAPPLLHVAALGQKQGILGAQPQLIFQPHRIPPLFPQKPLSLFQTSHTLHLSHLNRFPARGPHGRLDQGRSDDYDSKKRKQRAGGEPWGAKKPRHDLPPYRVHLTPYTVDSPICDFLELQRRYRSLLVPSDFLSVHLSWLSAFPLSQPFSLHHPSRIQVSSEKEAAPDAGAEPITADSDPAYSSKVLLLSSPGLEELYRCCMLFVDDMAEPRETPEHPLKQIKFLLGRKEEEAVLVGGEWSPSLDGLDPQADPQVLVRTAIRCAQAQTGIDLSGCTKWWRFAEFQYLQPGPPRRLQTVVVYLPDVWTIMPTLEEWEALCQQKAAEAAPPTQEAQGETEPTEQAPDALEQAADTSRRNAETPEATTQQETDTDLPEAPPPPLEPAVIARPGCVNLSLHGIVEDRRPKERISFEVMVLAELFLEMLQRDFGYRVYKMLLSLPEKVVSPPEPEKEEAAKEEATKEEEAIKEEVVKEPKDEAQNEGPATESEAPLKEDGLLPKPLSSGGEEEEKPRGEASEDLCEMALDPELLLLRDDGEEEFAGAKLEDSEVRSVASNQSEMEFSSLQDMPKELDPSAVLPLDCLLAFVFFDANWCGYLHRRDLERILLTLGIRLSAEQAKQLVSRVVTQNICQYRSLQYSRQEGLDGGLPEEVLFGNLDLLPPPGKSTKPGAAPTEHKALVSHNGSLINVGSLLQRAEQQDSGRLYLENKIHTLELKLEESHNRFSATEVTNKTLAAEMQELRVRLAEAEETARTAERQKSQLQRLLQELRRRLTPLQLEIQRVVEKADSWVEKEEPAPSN
T2 sequence (Q8N163 whole entry): as the sequence (Q8N163 whole entry, one chain of several) above

## NC(=O)c1cccc(N)c1 [3-AB, 3-aminobenzamide]
PARP1-DBC1 complex; 2 mM, 1 hr
  effect on the PARP1-DBC1 complex: no effect
PARP1-DBC1 interaction
  effect on the PARP1-DBC1 interaction in 293T cells: no effect
PAR
  PAR induced by paraquat: inhibitory effect

## Nc1ncnc2c1ncn2[C@@H]1O[C@H](COP(=O)(O)OP(=O)(O)OC[C@H]2OC(O)[C@H](O)[C@@H]2O)[C@@H](O)[C@H]1O (stereo partly drawn) [ADPr, ADP-ribose]
PARP1-DBC1 complex; 200 μM, 1 hr
  effect on the PARP1-DBC1 complex: no effect

## Nc1ncnc2c1ncn2[C@@H]1O[C@H](COP(=O)(O)OP(=O)(O)OP(=O)(O)O)[C@@H](O)[C@H]1O [ATP, adenosine triphosphate]
PARP1-DBC1 complex; 200 μM, 1 hr
  effect on the PARP1-DBC1 complex: no effect

## NC(=O)c1ccc[n+]([C@@H]2C[C@H](COP(=O)(O)OP(=O)(O)OC[C@H]3O[C@@H](n4cnc5c(N)ncnc54)[C@H](O)[C@@H]3O)[C@@H](O)[C@H]2O)c1 [Carba-NAD, Carbanicotinamide adenine dinucleotide]
PARP1-DBC1 complex; non-hydrolysable NAD^+ analogue, concentration not given
  effect on the PARP1-DBC1 complex: abrogated

## O=C(/C=C/c1cccnc1)NCCCCC1CCN(C(=O)c2ccccc2)CC1 [FK866]
PARP1-DBC1 interaction; FK866, 24 hrs
  PARP1-DBC1 interaction in HEK293T cells: increased
SIRT1-DBC1 interaction
  SIRT1-DBC1 interaction in cells: slightly diminished

## NC(=O)C1=CN([C@@H]2O[C@H](COP(=O)(O)OP(=O)(O)OC[C@H]3O[C@@H](n4cnc5c(N)ncnc54)[C@H](O)[C@@H]3O)[C@@H](O)[C@H]2O)C=CC1 [NADH]
PARP1-DBC1 complex; 200 μM, 1 hr
  effect on the PARP1-DBC1 complex: less effective than NAD^+

## NC(=O)c1cccnc1 [NAM, Nicotinamide]
PARP1-DBC1 complex; 500 μM, 1 hr
  effect on the PARP1-DBC1 complex: no effect

## NC(=O)c1ccc[n+]([C@@H]2O[C@H](CO)[C@@H](O)[C@H]2O)c1 [NR, Nicotinamide Riboside]
PARP1-DBC1 complex; 200 μM, 1 hr
  effect on the PARP1-DBC1 complex: no effect
PARP1-DBC1 interaction; treatment of 293T cells with NR
  PARP1-DBC1 complex in 293T cells: dissociates
Cellular NAD^+ levels
  cellular NAD^+ levels: raises

## CN(C)CC(=O)Nc1ccc2[nH]c(=O)c3ccccc3c2c1 [PJ-34]
PARP1-DBC1 interaction
  effect on the PARP1-DBC1 interaction in 293T cells: no effect

## Nc1ncnc2nc[nH]c12 [adenine]
PARP1-DBC1 complex; 200 μM, 1 hr
  effect on the PARP1-DBC1 complex: less effective than NAD^+

## Nc1ncnc2c1ncn2[C@@H]1O[C@H](CO)[C@@H](O)[C@H]1O [adenosine]
PARP1-DBC1 complex; 200 μM, 1 hr
  effect on the PARP1-DBC1 complex: no effect

## C[n+]1ccc(-c2cc[n+](C)cc2)cc1 [paraquat]
[1]
  interaction of p53 and RAD51 with Flag-DBC1: did not change

## NC(=O)c1ccc[n+]([C@@H]2O[C@H](COP(=O)([O-])OP(=O)(O)OC[C@H]3O[C@@H](n4cnc5c(N)ncnc54)[C@H](O)[C@@H]3O)[C@@H](O)[C@H]2O)c1 [unlabeled NAD^+]
DBC1WT
  competition of labeled NAD^+ bound to DBC1: competed off

Source: US11957703B2, “Modulating Nudix homology domain (NHD) with nicotinamide mononucleotide analogs and derivatives of same” (President and Fellows of Harvard College, priority 2017, dated 2024)
